Measurements taken from article PMC12481576, “Barbituric Acid Derivatives as Covalent Inhibitors of Leishmania braziliensis Dihydroorotate Dehydrogenase” (Journal of Medicinal Chemistry, 2025).
Like-named read-outs stand apart in the source and are kept apart here.

Tests used:
[1] = Cell viability / cytotoxicity assay (PrestoBlue, 72 h); type: cell-based; conditions: human
Experimental: THP-1 cells (American Type Cell Collection, #TIB-202) were acquired in 2019 and stored frozen in liquid nitrogen. The cells were then maintained in RPMI 1640 (Thermo Fisher Scientific, #S31800–022) at 37 °C in a 5% CO2 atmosphere and routinely tested for Mycoplasma contamination by PCR using the primers 5′-[…] and 5′-[…]. To test the toxicity of compounds, 5000 cells were added to 96-well plates with a final volume of 80 μL centrifuged at 400g for 2 min and incubated with 150 ng/mL of phorbol myristate acetate (Merck, #P8139) for 48 h. The medium was replaced, and after 24 h, the compounds were added and tested at decreasing concentrations starting from 200 μM (10 μL/well). After 72 h of incubation, 10 μL of PrestoBlue Cell Viability Reagent (Thermo Fisher Scientific, #A13262) was added per well. After adding the reagent, the cells were incubated for 2 h at 37 °C in a 5% CO2 atmosphere, and fluorescence readings were performed using the SpectraMax M3 reader (excitation at 560 nm and emission at 590 nm).

[2] = tested on: Leishmania braziliensis promastigotes; experiment: Leishmanicidal activity, promastigote growth (SYBR Green, 72 h); type: cell-based, Leishmania (V.) braziliensis (MHOM/BR/1975/M2904); conditions: Leishmania braziliensis, L. braziliensis promastigotes, max 200 μM
Experimental: The cultures were adjusted to 4 × 10^6 parasites per mL, and 50 μL of each culture was added on a test plate with 384 wells (Corning, #CLS3658), along with the controls and compounds to be tested. Previously diluted compounds in DMSO were added to plates in decreasing concentrations, with a maximum concentration of 200 μM. Parasites were exposed to a final concentration of DMSO in various dilutes (final = 0.5%), and the culture medium was used as the control for the experiment. […] After adding the lysis buffer, the plates were incubated in the dark for 2 h with gentle shaking. The readings were done using a SpectraMax M3 reader (excitation at 485 nm and emission at 535 nm).

[3] = biological target: T1, HsDHODH (Homo sapiens, UniProt Q02127); experiment: Selectivity assay: HsDHODH single-dose inhibition (DCIP reduction); type: biochemical
T1 construct: made in house
T1 sequence (Q02127 whole entry): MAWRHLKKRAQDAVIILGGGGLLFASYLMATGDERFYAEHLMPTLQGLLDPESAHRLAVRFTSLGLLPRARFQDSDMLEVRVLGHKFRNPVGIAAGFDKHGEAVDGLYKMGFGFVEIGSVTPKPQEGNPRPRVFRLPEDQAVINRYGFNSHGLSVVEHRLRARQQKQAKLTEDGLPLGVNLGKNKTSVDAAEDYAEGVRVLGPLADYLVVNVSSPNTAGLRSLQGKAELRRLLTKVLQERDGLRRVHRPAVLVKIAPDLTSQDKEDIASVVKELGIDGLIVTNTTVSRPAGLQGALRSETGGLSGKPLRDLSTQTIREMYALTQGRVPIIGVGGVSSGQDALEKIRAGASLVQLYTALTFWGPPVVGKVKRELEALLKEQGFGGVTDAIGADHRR
Experimental: […]. This finding highlights the potential of barbituric acid derivatives as selective inhibitors of LbDHODH.
Human DHODH expression and purification were conducted following a protocol previously established in our laboratory. The purification was carried out by affinity chromatography on a Ni-NTA Agarose column (Qiagen[…] Cat. No. 30210). […] The reaction was performed in triplicate, initiated by adding 195 μL of reaction buffer to 5 μL of HsDHODH protein solution for a final concentration of 20 nM enzyme. As a blank, 195 μL of reaction buffer was added to 5 μL of Buffer A. The reaction was monitored at 610 nm every 3 s over 60 s. As a control, 5 μL of enzyme was added to 195 μL of reaction medium without compound. Enzymatic velocity was calculated, and the percentage of relative enzymatic activity was determined relative to the control.

[4] = biological target: LbDHODH (Leishmania braziliensis, UniProt E9AI53); experiment: biochemical; conditions: for IC50: LbDHODH
LbDHODH, sequence (E9AI53 entry or part of it): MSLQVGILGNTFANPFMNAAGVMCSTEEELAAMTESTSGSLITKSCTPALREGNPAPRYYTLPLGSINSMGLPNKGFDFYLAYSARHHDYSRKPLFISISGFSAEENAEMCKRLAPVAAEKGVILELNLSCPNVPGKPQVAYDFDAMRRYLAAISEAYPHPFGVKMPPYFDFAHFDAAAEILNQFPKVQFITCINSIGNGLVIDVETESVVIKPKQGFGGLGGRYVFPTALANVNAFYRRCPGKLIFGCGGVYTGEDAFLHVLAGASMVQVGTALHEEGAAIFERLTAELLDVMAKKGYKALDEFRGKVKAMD
Experimental: To assess the ability of compounds 2a–2i to inhibit LbDHODH via covalent bond formation with Cys^131, we initially screened them at a concentration of 100 μM under two conditions: with and without a 4-h preincubation with the enzyme.
The experiments were performed in a 96-well microplate reader (SpectraMax Plus 384, Molecular Devices, USA), containing the […] of the buffer 60 mM DCIP, 50 mM Tris pH 8.15, 150 mM KCl, 0.1% Triton X-100, 50 μM DHO and 10 μM of LbDHODH at 165 nM. The reaction was monitored every 3 s at 610 nm over a period of 60 s, in triplicate, for the control and each concentration of the inhibitor. All assays were performed without incubation (0h) and with 4-h preincubation of the inhibitor with LbDHODH, using 5% DMSO (v/v) as control. […]. […] The resulting kobs values were plotted as a function of inhibitor concentration, and the data in the initial linear region was fit to determine the slope, which is kinact/KI. All regressions were performed with GraphPad Prism 9.

[5] = mouse liver microsomes; for Raw data: analyte peak area, T=0: 0 min; for Raw data: analyte peak area, T=0 / Raw data: analyte peak area, T=5 / Raw data: analyte peak area, T=10 / Raw data: analyte peak area, T=20 / Raw data: analyte peak area, T=30 / Raw data: analyte peak area, T=60: raw LC-MS area; for Raw data: analyte peak area, T=10: 10 min; for Raw data: analyte peak area, T=30: 30 min; for Raw data: analyte peak area, T=60: 60 min
[6] = in vitro; conditions: liver microsomes, pH 7.4, % Remaining, 1 µM; for remaining at 10 min, 1 µM: T=10 min; for remaining at 1 h, 1 µM: T=60 min, 60 min
[7] = Parallel artificial membrane permeability assay (PAMPA); conditions: PBS pH 7.4/7.4, 6h at room temperature; for recovery at 6 h, 10 µM: PAMPA; for recovery at 6 h, 10 µM / Avg Log Pe (cm/sec) / Avg Pe: 10µM; for Pe (nm/sec) n=1: replicate n=1; for Pe (nm/sec) n=1 / Pe (nm/sec) n=2: 10µM (5% DMSO), LC-MS/MS; for Pe (nm/sec) n=2: replicate n=2
Experimental: Solutions of the compounds were prepared in duplicate by diluting the stock solutions (10 mM) in phosphate buffered saline (PBS) pH 7.4 at a final concentration of 10 μM (5% DMSO). The solutions diluted in PBS pH 7.4 were then added to the donor portion of the plate (300 μL/well), while in the acceptor portion PBS pH 7.4 (200 μL/well) was added. The two portions of the plate were then coupled, and the system was incubated for 6 h at room temperature. Samples of the initial donor solution (T0) were collected at the beginning (T0) and stored at 5 °C. The final concentrations of compounds in the donor, acceptor and T0 wells were quantified by LC-MS/MS.

[8] = THP-1 cell line, 72 h, max 200 μM, read-out: CC50
[9] = read-out: Single dose (0h) % activity
[10] = read-out: Single dose (4h) % activity
[11] = LbDHODH remaining activity, compound 100 μM, 4-h preincubation, read-out: single dose (4 h) % activity
[12] = LbDHODH remaining activity, compound 100 μM, without preincubation, read-out: single dose (0 h) % activity
[13] = IC50 0 h, without preincubation
[14] = mouse, n=1, mouse liver microsomes, n=1
[15] = mouse, n=2, mouse liver microsomes, n=2
[16] = pH 7.4, % Recovery n=1, replicate n=1
[17] = pH 7.4, % Recovery n=2, replicate n=2
[18] = pH 7.4, Avg % Recovery, average of n=2

## O=C1NC(=O)C(CCCc2ccccc2)C(=O)N1 [3ii, 5-(3-Phenylpropyl)pyrimidine-2,4,6(1H,3H,5H)-trione]
[1]; [8]
  CC50 at 72 h: > 200 µM
[2]
  EC50: 23 ± 6 µM
[3]; [9]
  activity at 100 µM: 99 ± 11%
[3]; [10]
  activity at 100 µM: 96 ± 9%
[4]; [11]
  activity at 100 µM: 21 ± 7%
[4]; [12]
  activity at 100 µM: 98 ± 5%

## O=C1NC(=O)C(Cc2ccc(-c3ccccc3)cc2)C(=O)N1 [3f, 5-([1,1′-Biphenyl]-4-ylmethyl)pyrimidine-2,4,6(1H,3H,5H)-trione]
[1]; [8]
  CC50 at 72 h: > 200 µM
[2]
  EC50: > 200 µM
[3]; [9]
  activity at 100 µM: 93 ± 11%
[3]; [10]
  activity at 100 µM: 102 ± 10%
[4]; [11]
  activity at 100 µM: 34 ± 6%
[4]; LbDHODH remaining activity, compound 100 μM, without preincubation, 100 µM
  single dose (0 h) % activity: 82.6 ±0.2%
[4]; [12]
  activity at 100 µM: 83 ± 0.2%

## C[C@@H]1[C@H](O)[C@@H](C)/C=C/C=C/C=C/C=C/C=C/C=C/C=C/[C@H](O[C@@H]2O[C@H](C)[C@@H](O)[C@H](N)[C@@H]2O)C[C@@H]2O[C@](O)(C[C@@H](O)C[C@@H](O)[C@H](O)CC[C@@H](O)C[C@@H](O)CC(=O)O[C@H]1C)C[C@H](O)[C@H]2C(=O)O [Amp. B, Amphotericin B, reference compound]
[1]
  CC50 at 72 h: 6 ± 2 µM
[2]; read-out: EC50
  EC50: 0.4 ± 0.3 µM

## O=C1NC(=O)C(Cc2ccc(-c3ccccc3F)[nH]2)C(=O)N1 [3h, 5-((5-(2-Fluorophenyl)-1H-pyrrol-2-yl)methyl)pyrimidine-2,4,6(1H,3H,5H)-trione]
[1]; [8]
  CC50 at 72 h: > 200 µM
[2]
  EC50: > 200 µM
[3]; [9]
  activity at 100 µM: 89 ± 10%
[3]; [10]
  activity at 100 µM: 91 ± 9%
[4]; [13]
  IC50: > 100 µM
[4]; IC50 4 h, 4-h preincubation
  IC50: > 100 µM
[4]; [9]
  activity at 100 µM: 80 ± 10%
[4]; [10]
  activity at 100 µM: 80 ± 20%

## O=C1NC(=O)C(Cc2ccc(C(=O)O)cc2)C(=O)N1 [3b, 4-((2,4,6-Trioxohexahydropyrimidin-5-yl)methyl)benzoic Acid]
[1]; [8]
  CC50 at 72 h: > 200 µM
[2]
  EC50: > 200 µM
[3]; [9]
  activity at 100 µM: 92 ± 10%
[3]; [10]
  activity at 100 µM: 83 ± 8%
[4]; [13]
  IC50: > 100 µM
[4]; IC50 4 h, 4-h preincubation
  IC50: > 100 µM
[4]; [9]
  activity at 100 µM: 109 ± 3%
[4]; [10]
  activity at 100 µM: 69 ± 2%

## COc1cc(CC2C(=O)NC(=O)NC2=O)ccc1O [3c, 5-(4-Hydroxy-3-methoxybenzyl)pyrimidine-2,4,6(1H,3H,5H)-trione]
[1]; [8]
  CC50 at 72 h: > 200 µM
[2]
  EC50: > 200 µM
[3]; [9]
  activity at 100 µM: 87 ± 10%
[3]; [10]
  activity at 100 µM: 79 ± 8%
[4]; [13]
  IC50: > 100 µM
[4]; IC50 4 h, 4-h preincubation
  IC50: > 100 µM
[4]; [9]
  activity at 100 µM: 98 ± 7%
[4]; [10]
  activity at 100 µM: 60 ± 10%

## CC(C)NCC(O)COc1cccc2ccccc12 (centres unmarked) [Propranolol]
[5]; replicate 1 (left block)
  Raw data: analyte peak area, T=0: 97333
  Raw data: analyte peak area, T=10: 45227
  Raw data: analyte peak area, T=30: 21377
  Raw data: analyte peak area, T=60: 15713
[5]; replicate 2 (right block)
  Raw data: analyte peak area, T=0: 94436
  Raw data: analyte peak area, T=10: 43475
  Raw data: analyte peak area, T=30: 25558
  Raw data: analyte peak area, T=60: 15931
[5]; 1 µM, 5 min, n=1
  % Remaining, T=5 min, n=1: 58.1%
[5]; 1 µM, 20 min, n=1
  % Remaining, T=20 min, n=1: 31.9%
[5]; 5 min, replicate 1 (left block)
  Raw data: analyte peak area, T=5: 56345
[5]; 5 min, replicate 2 (right block)
  Raw data: analyte peak area, T=5: 55807
[5]; 20 min, replicate 1 (left block)
  Raw data: analyte peak area, T=20: 29264
[5]; 20 min, replicate 2 (right block)
  Raw data: analyte peak area, T=20: 29449
[6]; male, CD1, mouse, T=5 min, n=2, mouse liver microsomes, 5 min, n=2
  remaining at 5 min, 1 μM: 52.5%
[6]; [14]
  remaining at 10 min, 1 µM: 46.8%
  remaining at 1 h, 1 µM: 16%
[6]; [15]
  remaining at 10 min, 1 µM: 43.5%
  remaining at 1 h, 1 µM: 15.5%
[6]; mouse, T=20 min, n=2, mouse liver microsomes, 20 min, n=2
  remaining at 20 min, 1 µM: 31.2%
[6]; mouse, T=30 min, n=1, mouse liver microsomes, 30 min, n=1
  remaining at 0.5 h, 1 µM: 22.7%
[7]; [16]
  recovery at 6 h, 10 µM: 85.7%
[7]; [17]
  recovery at 6 h, 10 µM: 82.4%
[7]; [18]
  recovery at 6 h, 10 µM: 84%
[7]; average of n=2
  Avg Log Pe (cm/sec): -5.2 cm/sec
  Avg Pe: 6.15 ×10⁻⁶ cm/s
[7]
  Pe (nm/sec) n=1: 53.6 nm/s
  Pe (nm/sec) n=2: 69.4 nm/s

## O=C(O)c1cc(=O)[nH]c(=O)[nH]1 [Orotate, orotate]
[4]; IC50 4 h, 4-h preincubation
  IC50: 27 ± 1 µM
[4]; [11]
  activity at 100 µM: 27 ± 2%
[4]; [12]
  activity at 100 µM: 35 ± 4%
[4]; without preincubation, read-out: IC50 0 h
  IC50: 57 ± 2 µM

## NC(=O)N1c2ccccc2C=Cc2ccccc21 [Carbamazepine]
[7]; [16]
  recovery at 6 h, 10 µM: 100%
[7]; [17]
  recovery at 6 h, 10 µM: 92.5%
[7]; [18]
  recovery at 6 h, 10 µM: 96.3%
[7]; average of n=2
  Avg Log Pe (cm/sec): -5.1 cm/sec
  Avg Pe: 7.83 ×10⁻⁶ cm/s
[7]
  Pe (nm/sec) n=1: 80.3 nm/s
  Pe (nm/sec) n=2: 76.4 nm/s

## NS(=O)(=O)c1cc(C(=O)O)c(NCc2ccco2)cc1Cl [Furosemide]
[7]; [16]
  recovery at 6 h, 10 µM: 89.7%
[7]; [17]
  recovery at 6 h, 10 µM: 91.4%
[7]; [18]
  recovery at 6 h, 10 µM: 90.6%
[7]; average of n=2
  Avg Pe: 4.97e-05 ×10⁻⁶ cm/s
[7]
  Pe (nm/sec) n=1: 0.000533 nm/s
  Pe (nm/sec) n=2: 0.000461 nm/s

## C/C(O)=C(\C#N)C(=O)Nc1ccc(C(F)(F)F)cc1 [Teriflunomide, reference compound]
[3]; HsDHODH remaining activity, 100 μM, 4-h incubation, read-out: Single dose (4h) % activity
  activity at 100 µM: 0.39 ± 0.04%
[3]; HsDHODH remaining activity, 100 μM, without incubation, read-out: Single dose (0h) % activity
  activity at 100 µM: 0.6 ± 0.1%
